Reference: patent publication US9932317B2, “Quinazoline compounds and their use in therapy” (Imperial Innovations Limited, priority 2012, dated 2018)

Key:
[1] = reported; cited from earlier work
[2] = test system: EZH2 target genes (KRT17, FBXO32) in MDA-MB-231 cells; experiment: Real-time RT-PCR cell based assay for up-regulation of H3K27me3 silenced genes
Source text: In order to monitor the reversal of epigenetic silencing associated with H3K27me3, a cell based assay was established using the breast-cancer cell line MDA-MB-231 for which EZH2 expression levels as well as EZH2 target genes have been characterised (17). For initial characterisation of compound activity two genes (KRT17, FBXO32) were selected which are primarily silenced by H3K27me3 in combination with H3K9me2/3 but are not DNA methylated. Furthermore, the DNA methylated gene (RUNX3) was selected to control for effects at loci that are silenced by H3K27me3 in combination with CpG island DNA methylation. The two enzymes which perform H3K27 methylation (EZH2) and demethylation (JMJD3) were also included. Cell death can lead to the down-regulation of EZH2 and up-regulation of JMJD3 in cells (36) and is therefore important to control for indirect effects due to cell death in such a cell-based assay.
In order to identify compounds which can mediate the reactivation of PRC2 silenced genes, MDA-MB-231 cells were treated for 48 h at a concentration of 10 μM of Example compounds 3 (HKMTi-1-005), 4 (HKMTi-1-022) or 5 (HKMTi-1-011), as well as with the comparative examples BIX-01294 or UNC0224, and mRNA levels of KRT17, FBXO32, RUNX3, as well as EZH2 and JMJD3 were measured by real-time RT-PCR. The data were normalised against the housekeeping gene GAPDH as well as RNA pol II (only results for GAPDH are shown, although consistent results were obtained with RNA pol II normalisation). […] The reported G9a/GLP specific inhibitors BIX01294 and UNC0224 have a very different activity profile on gene expression.
(§1) To characterise example compounds 3 (HKMTi-1-005), 4 (HKMTi-1-022) and 5 (HKMTi-1-011) further, MDA-MB-231 cells were treated for 48 h and 72 h at various concentrations (FIGS. 1d and e). […] At higher doses of compounds cell death started to occur, particularly at 72 h, which coincides with a dramatic drop in GAPDH levels. At these doses, expression of KRT17 was often below the detection limit of low-expressed genes due to cell death (indicated as “*” in FIGS. 1d and e). Independently synthesised batches of Example compounds 3 (HKMTi-1-005), 4 (HKMTi-1-022) and 5 (HKMTi-1-011) were prepared and assessed to ensure reproducibility of our results and indeed confirmed that those compounds could induce gene re-expression of KRT17 and FBXO32.
Cell culture and compound treatment: MDA-MB-231, T47D, MCF7, BT474, BT549 and SKBR3 breast cancer cell lines were cultured in DMEM-Medium supplemented with 10% FCS (#02.00.830, First Link (UK), 2 mM L-Glutamine (#25030-024, Invitrogen), 100 U/ml Penicillin and 100 μg/ml Streptavidin (#15070-063, Invitrogen) until they were ˜60% confluent and then treated for either 48 h or 72 h with a compound. Compounds were diluted in DMSO at Stocks of 10 mM. MCF-10a breast cell lines were cultured in DMEM/F12-Medium supplemented with 5% horse serum, EGF (20 ng/ml), Hydrocortizone ([…]), Cholera Toxin (100 ng/ml), Insulin (10 μg/ml) as well as 100 U/ml Penicillin and 100 μg/ml Streptavidin (#15070-063, Invitrogen). For MTT experiments, cells were either kept in DMEM/F12 growth medium or in normal DMEM-Medium to mimic the ‘normal’ non-dividing cell state.
Following compound treatment for 48 h (in 6-well plates), media was removed and 1.5 ml of TRIzol (#155966018, Invitrogen) was added directly to lyse cells. Once cells were lysed, the protocol was continued with 1 ml (TRIzol, cell lysate) according to the manufactures instructions. Purified RNA was dissolved in 35 μl of UltraPure DNase/RNase-free distilled water (#10977049, Invitrogen). Reverse transcription was done using the SuperScript III First-Strand Synthesis System (#18080-051, Invitrogen) according to the manufactures instructions, using 7 μl of the purified RNA as starting material. For real-time measurements the 2×iQ SYBR Green Supermix (#170-8882, Bio-Rad), 200 nM Primers and 0.4 μl of cDNA/per 20 μl reaction was used. […]

[3] = test system: EZH2 target genes in MDA MB-231 cells; experiment: Agilent two-colour gene expression microarrays, enrichment of EZH2 target genes; type: cell-based; conditions: MDA MB-231, 10 μM
Protocol: Agilent two-colour microarrays were used to profile gene expression changes induced 24 h and 48 h after 10 μM treatment with example compound 3 (HKMTi-1-005) compared to compound HKMTi-1-012. […] Many of these EZH2 target genes are clearly differentially expressed following treatment with example compound 3 (HKMTi-1-005) compared to compound HKMTi-1-012, as shown in Table 2 in FIG. 5. Statistical enrichment of EZH2-target genes (Lee et al 2011) in the lists of differentially expressed genes was evaluated using the hypergeometric distribution. Example compound 3 (HKMTi-1-005) results in significant upregulation (p=3.3^−33 at 24 h and p=3.2^−21 at 48 h) and significant down-regulation (p=3.5^−37 at 24 h and p=3.8^−61 at 48 h) of EZH2 target genes. […]
Normalised log 2 gene expression ratios were analysed using LIMMA (Smyth 2004) to obtain empirical Bayes moderated t-statistics reflecting statistical significance of differential expression across the 4 replicates for each drug, time combination. […]
Statistical significance of overlap between these lists of EZH2 targets and the genes differentially expressed upon drug treatment in our microarray study was assessed using the hypergeometric distribution.

[4] = test system: histone marks at KRT17 and FBXO32 promoter region in MDA-MB-231 cells; experiment: Chromatin Immunoprecipitation (ChIP) at KRT17 and FBXO32 promoter; type: cell-based; conditions: MDA-MB-231, 5 μM, 72 h
Protocol: The fold difference to the untreated sample is shown. Each IP-value has been determined as the relative increase to the no-antibody control and then normalised to GAPDH levels.
(§2) Chromatin Immunoprecipitation (ChIP) experiments were carried out on treated MDA-MB-231 cells to verify that the detected gene up-regulation is indeed due to chromatin remodelling (FIG. 2). For this, typical silencing marks such as H3K9me3 and H3K27me3 were tested as well as activating marks such as H3K4me3, H3K27ac and H3K9ac. […] It should be noted that greater than 50% cell death is observed for compound 5 (HKMTi-1-011) at this concentration, but not for the others, and the changes observed in histone marks for compound 5 (HKMT-1-011) may reflect ongoing cell death.
ChIP was accomplished using Dynabeads Protein A (Invitrogen #100-01D.) according to (41), except that following the Chelex-DNA purification an additional purification with QIAquick PCR Purification Kit (#28106, Qiagen) was carried out, here the ChIP-products were eluted in 50 μl and for subsequent real-time measurements (as described above) 1.5 μl per reaction was used. The list of Primers can be found in FIG. 7 (Supplementary Table 2).

MDA-MB-231 cells = experiment: Cell death of treated MDA-MB-231 cells; type: cell-based; conditions: MDA-MB-231, concentration of the ChIP experiment (5 μM, 72 h)
Protocol: as §1
as §2, with “death. […]” for “death.”

[5] = MDA-MB-231, 10 μM, 48 h, normalised to GAPDH
[6] = MDA-MB-231, various concentrations, 48 h and 72 h

Compound: COc1cc2nc(N3CCCN(C)CC3)nc(NC3CCN(Cc4ccccc4)CC3)c2cc1OC [BIX-01294, reference compound]
- separation of functional potency and cell toxicity [1]: poor separation of functional potency and cell toxicity
- FBXO32 RNA levels [2, 5]: does up-regulate
- KRT17 RNA levels [2, 5]: does not up-regulate

Compound: Nc1nccc2c1ncn2C1C=C(CO)C(O)C1O (stereo not drawn) [DZNep, reference compound]
- EZH2 mRNA level [2, 6]: unaffected
- FBXO32 mRNA level [2, 6]: unaffected
- JMJD3 mRNA level [2, 6]: unaffected
- KRT17 mRNA level [2, 6]: consistently up-regulated
- RUNX3 expression [2, 6]: increased under certain conditions although not in a dose dependent manner

Compound: COc1cc2nc(N3CCN(C)CC3)nc(NC3CCN(Cc4ccccc4)CC3)c2cc1OC [HKMTi-1-005]
- functional enrichment of changed pathways (DAVID) [3]: upregulation of apoptosis genes and the lysosome pathway, and a downregulation of a number of processes related to cell cycle & cell division
- permissive chromatin marks (H3K4me3, H3K4me2, H3K9ac, H3K27ac) [4]: increase in most permissive marks
- repressive chromatin marks (H3K27me3, H3K9me3) at KRT17 and FBXO32 [4]: clear decrease
- FBXO32 RNA levels [2, 5]: up-regulate
- KRT17 RNA levels [2, 5]: up-regulate
- RUNX3 expression [2, 5]: not effecting
- FBXO32 mRNA level [2, 6]: dose-dependent increase
- JMJD3 mRNA level [2, 6]: dose-dependent increase
- KRT17 mRNA level [2, 6]: dose-dependent increase

Compound: COc1cc2nc(N3CCN(c4ccccn4)CC3)nc(NC3CCN(Cc4ccccc4)CC3)c2cc1OC [HKMTi-1-011]
- permissive chromatin marks (H3K4me3, H3K4me2, H3K9ac, H3K27ac) [4]: increase in most permissive marks
- repressive chromatin marks (H3K27me3, H3K9me3) at KRT17 and FBXO32 [4]: clear decrease
- FBXO32 RNA levels [2, 5]: up-regulate
- KRT17 RNA levels [2, 5]: up-regulate
- RUNX3 expression [2, 5]: not effecting
- FBXO32 mRNA level [2, 6]: increase in a dose dependent manner
- JMJD3 mRNA level [2, 6]: increase in a dose dependent manner
- KRT17 mRNA level [2, 6]: increase in a dose dependent manner
- cell death (MDA-MB-231 cells): greater than 50%

Compound: COc1cc2nc(N3CCCCC3)nc(NC3CCN(Cc4ccccc4)CC3)c2cc1OC [HKMTi-1-022]
- JMJD3 binding [4]: increase
- permissive chromatin marks (H3K4me3, H3K4me2, H3K9ac, H3K27ac) [4]: increase of the activating marks H3K4me3, H3K27ac and H3K9ac
- repressive chromatin marks (H3K27me3, H3K9me3) at KRT17 and FBXO32 [4]: clear decrease
- permissive chromatin marks (H3K4me3, H3K4me2, H3K9ac, H3K27ac) ([4]; listed as HKMT-1-022): concomitant increase in all permissive chromatin marks examined
- FBXO32 RNA levels [2, 5]: up-regulate
- KRT17 RNA levels [2, 5]: up-regulate
- RUNX3 expression [2, 5]: not effecting
- FBXO32 mRNA level [2, 6]: increase in a dose dependent manner
- JMJD3 mRNA level [2, 6]: increase in a dose dependent manner
- KRT17 mRNA level [2, 6]: increase in a dose dependent manner

Compound: COc1cc2c(NC3CCN(C)CC3)nc(N3CCCN(C)CC3)nc2cc1OCCCN(C)C [UNC0224, reference compound]
- FBXO32 RNA levels [2, 5]: very little effect
- KRT17 RNA levels [2, 5]: very little effect
- gene expression profile in the cell assay (KRT17, FBXO32, RUNX3) ([2]; MDA-MB-231, 10 μM, compared with example compounds 3, 4 and 5): very little effect
